Reference: patent US8841348B2, “Anti-inflammatory formulation” (AKL Inflammatory Limited, priority 2005, dated 2014)

Assay: Applicant's clinical observation of paeonol and apocynin alone versus together
Type: in vivo
Details: used on their own
Source text: The applicant has noted that the effect of the combination of paeonol and apocynin together is rather better than would have been expected from studies using either of these alone.

Structure (SMILES) | anti-inflammatory and/or analgesic activity
COc1cc(C(C)=O)ccc1O [apocynin, 4-hydroxy-3-methoxyacetophenone] | did not show anti-inflammatory and/or analgesic activity that could be clinically observed
COc1ccc(C(C)=O)c(O)c1 [paeonol, 2-hydroxy-4-methoxy-acetophenone] | did not show anti-inflammatory and/or analgesic activity that could be clinically observed
